“And” between values parts separate entries of the source, which are not always exact repeats. Identical values can stand only once. Toxic doses and inconclusive results are not listed.
System: BDF1 mice, P388 leukemia ip, median survival T/C
Assay: NCI In Vivo Anticancer Drug Screen. Data for tumor model P388 Leukemia (intraperitoneal) in B6D2F1 (BDF1) mice
Settings: endpoint: median survival time, higher = longer survival
Procedure, shortened: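 In tumour-bearing mice, survival after compound treatment is set against the vehicle group and given as a quotient.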

[1] = dose: 200.0 mg/kg/injection, schedule: Q04DX003 (ip), vehicle: saline
[2] = dose: 50.0 mg/kg/injection, schedule: Q01DX009 (ip), vehicle: saline with Tween-80
[3] = dose: 100.0 mg/kg/injection, schedule: Q01DX009 (ip), vehicle: Klucel (hydroxypropylcellulose) (HPC)
[4] = dose: 100.0 mg/kg/injection, schedule: Q04DX003 (ip), vehicle: Klucel (hydroxypropylcellulose) (HPC)
[5] = dose: 200.0 mg/kg/injection, schedule: Q01DX009 (ip), vehicle: Klucel (hydroxypropylcellulose) (HPC)
[6] = dose: 200.0 mg/kg/injection, schedule: Q04DX003 (ip), vehicle: Klucel (hydroxypropylcellulose) (HPC)
[7] = dose: 400.0 mg/kg/injection, schedule: Q04DX003 (ip), vehicle: Klucel (hydroxypropylcellulose) (HPC)
[8] = dose: 100.0 mg/kg/injection, schedule: Q01DX009 (ip), vehicle: saline with Tween-80
[9] = dose: 200.0 mg/kg/injection, schedule: Q01DX009 (ip), vehicle: saline with Tween-80
[10] = dose: 12.5 mg/kg/injection, schedule: Q04DX003 (ip), vehicle: saline with Tween-80
[11] = dose: 25.0 mg/kg/injection, schedule: Q04DX003 (ip), vehicle: saline with Tween-80
[12] = dose: 100.0 mg/kg/injection, schedule: Q04DX003 (ip), vehicle: saline with Tween-80
[13] = dose: 200.0 mg/kg/injection, schedule: Q04DX003 (ip), vehicle: saline with Tween-80
[14] = dose: 400.0 mg/kg/injection, schedule: Q01DX009 (ip), vehicle: saline with Tween-80
[15] = dose: 400.0 mg/kg/injection, schedule: Q04DX003 (ip), vehicle: saline with Tween-80
[16] = dose: 25.0 mg/kg/injection, schedule: Q04DX003 (ip), vehicle: Klucel (hydroxypropylcellulose) (HPC)
[17] = dose: 50.0 mg/kg/injection, schedule: Q04DX003 (ip), vehicle: Klucel (hydroxypropylcellulose) (HPC)

Cc1cc(O)c2cc3c(O)c(O)ccc3cc2c1 was tested, and the T/C (dose: 0.5 mg/kg/injection, schedule: Q01DX010 (ip), vehicle: saline) was 100 % of control, the T/C (dose: 1.0 mg/kg/injection, schedule: Q01DX010 (ip), vehicle: saline) was 109 % of control and the T/C (dose: 2.0 mg/kg/injection, schedule: Q01DX010 (ip), vehicle: saline) was 118 % of control and 122 % of control. For the same molecule, the T/C (dose: 4.0 mg/kg/injection, schedule: Q01DX010 (ip), vehicle: saline) was 122 % of control, the T/C (dose: 31.3 micrograms/kg/injection, schedule: Q01DX010 (ip), vehicle: saline) was 109 % of control and the T/C (dose: 125.0 micrograms/kg/injection, schedule: Q01DX010 (ip), vehicle: saline) was 90 % of control. For the same molecule, the T/C (dose: 250.0 micrograms/kg/injection, schedule: Q01DX010 (ip), vehicle: saline) was 90 % of control.
In the case of N=c1cc(-c2ccc(Cl)cc2)ss1, the T/C (dose: 50.0 mg/kg/injection, schedule: Q01DX009 (ip), vehicle: saline) is reported as 117 % of control, the T/C (dose: 50.0 mg/kg/injection, schedule: Q04DX003 (ip), vehicle: saline) is reported as 97 % of control and the T/C (dose: 100.0 mg/kg/injection, schedule: Q04DX003 (ip), vehicle: saline) is reported as 105 % of control. The T/C [1] was 108 % of control.
For Cn1c(C(C)(C)O)cnc1[N+](=O)[O-], the T/C (dose: 12.5 mg/kg/injection, schedule: Q01DX009 (ip), vehicle: saline with Tween-80) was 105 % of control, the T/C (dose: 25.0 mg/kg/injection, schedule: Q01DX009 (ip), vehicle: saline with Tween-80) was 105 % of control and the T/C [2] was 110 % of control.
Cc1ccc(S(=O)(=O)OCC(CO)(COS(=O)(=O)c2ccc(C)cc2)[N+](=O)[O-])cc1 was tested, and the T/C [3] was 100 % of control, the T/C [4] was 113 % of control and the T/C [5] was 95 % of control. The T/C [6] was 121 % of control and the T/C [7] was 121 % of control.
With CC(=O)C1=CN(Cc2ccccc2)C(O)CC1C(N)=O (stereo unspecified) the T/C [2] was 101 % of control, the T/C [8] was 109 % of control and the T/C [9] was 115 % of control.
For Nc1ccc(NS(=O)(=O)c2ccccc2)nc1, the T/C [3] was 100 % of control, the T/C [4] was 100 % of control and the T/C [5] was 100 % of control. The T/C [6] was 100 % of control, the T/C (dose: 400.0 mg/kg/injection, schedule: Q01DX009 (ip), vehicle: Klucel (hydroxypropylcellulose) (HPC)) was 95 % of control and the T/C [7] was 100 % of control.
CC(=O)Nc1ncnc2n[nH]c(C#N)c12 was tested, and the T/C [10] was 117 % of control, the T/C [11] was 95 % of control and the T/C (dose: 50.0 mg/kg/injection, schedule: Q04DX003 (ip), vehicle: saline with Tween-80) was 104 % of control. The T/C [12] was 106 % of control.
In the case of Cc1ccc(OC/C=C/CSc2ccc(C)cc2)cc1, the T/C [4] is reported as 108 % of control, the T/C [6] is reported as 108 % of control and the T/C [7] is reported as 108 % of control.
For O=C(/C=C/c1ccc(Cl)cc1)NCC(O)CO (stereo unspecified), the T/C (dose: 400.0 mg/kg/injection, schedule: Q01DX009 (ip), vehicle: water) was 91 % of control.
With CCOC(=O)C(Cc1ccccc1Cl)(NC(C)=O)C(=O)OCC the T/C [8] was 100 % of control, the T/C [12] was 90 % of control and the T/C [13] was 100 % of control. The T/C [14] was 90 % of control and the T/C [15] was 104 % of control.
In the case of C[C@]12C[C@H](O)[C@H]3[C@@H](CCC4=CC(=O)CC[C@@]43C)[C@@H]1CC[C@@H]2C(=O)CO, the T/C (dose: 45.0 mg/kg/injection, schedule: Q04DX003 (sc), vehicle: steriod suspending solution) is reported as 95 % of control, the T/C (dose: 65.0 mg/kg/injection, schedule: Q04DX003 (sc), vehicle: steriod suspending solution) is reported as 100 % of control and the T/C (dose: 200.0 mg/kg/injection, schedule: Q04DX003 (sc), vehicle: steriod suspending solution) is reported as 115 % of control. For the same molecule, the T/C (dose: 264.0 mg/kg/injection, schedule: Q01DX009 (sc), vehicle: steriod suspending solution) was 109 % of control, the T/C (dose: 264.0 mg/kg/injection, schedule: Q04DX003 (sc), vehicle: steriod suspending solution) was 110 % of control and the T/C (dose: 400.0 mg/kg/injection, schedule: Q01DX009 (sc), vehicle: steriod suspending solution) was 122 % of control. The T/C (dose: 400.0 mg/kg/injection, schedule: Q04DX003 (sc), vehicle: steriod suspending solution) was 110 % of control.
With CCN(CCO)CC(C)Nc1ccc([N+](=O)[O-])c2sc3ccccc3c(=O)c12 (stereo unspecified) the T/C (dose: 33.0 mg/kg/injection, schedule: Q01DX009 (ip), vehicle: saline with Tween-80) was 195 % of control, the T/C [2] was 177 % of control and the T/C (dose: 66.0 mg/kg/injection, schedule: Q04DX003 (ip), vehicle: saline with Tween-80) was 162 % of control. For the same molecule, the T/C (dose: 75.0 mg/kg/injection, schedule: Q01DX009 (ip), vehicle: saline with Tween-80) was 95 % of control, the T/C [12] was 191 % of control and 200 % of control and the T/C (dose: 150.0 mg/kg/injection, schedule: Q04DX003 (ip), vehicle: saline with Tween-80) was 220 % of control. For the same molecule, the T/C [13] was 113 % of control and the T/C [15] was 95 % of control.
For O=C(O)c1oc2ccccc2c1CO, the T/C [2] was 99 % of control, the T/C [8] was 101 % of control and the T/C [9] was 105 % of control.
In the case of CCN(CC)CCC1(C(N)=O)Cc2ccccc2N(CC)c2ccccc21 (stereo unspecified), the T/C [8] is reported as 100 % of control and the T/C [9] is reported as 100 % of control.
With OC1CSC1 the T/C (dose: 50.0 mg/kg/injection, schedule: Q01DX009 (ip), vehicle: saline + alcohol) was 105 % of control, the T/C (dose: 100.0 mg/kg/injection, schedule: Q01DX009 (ip), vehicle: saline + alcohol) was 100 % of control and the T/C (dose: 200.0 mg/kg/injection, schedule: Q01DX009 (ip), vehicle: saline + alcohol) was 91 % of control. For the same molecule, the T/C (dose: 400.0 mg/kg/injection, schedule: Q01DX009 (ip), vehicle: saline + alcohol) was 98 % of control.
With O=C(c1ccccc1)C1CCCCC1 the T/C (dose: 12.0 mg/kg/injection, schedule: Q04DX003 (ip), vehicle: Klucel (hydroxypropylcellulose) (HPC)) was 104 % of control, the T/C [16] was 109 % of control and the T/C [17] was 100 % of control. The T/C [1] was 107 % of control and the T/C (dose: 400.0 mg/kg/injection, schedule: Q04DX003 (ip), vehicle: saline) was 107 % of control.
For CC(=O)N1c2cc3ccccc3cc2N(C(C)=O)c2cc3ccccc3cc21, the T/C [8] was 102 % of control, the T/C [9] was 97 % of control and the T/C [14] was 117 % of control.
With O=[N+]([O-])c1ccccc1N/N=C\c1c(Cl)[nH]c2ccccc12 the T/C (dose: 200.0 mg/kg/injection, schedule: Q04DX002 (ip), vehicle: Klucel (hydroxypropylcellulose) (HPC)) was 90 % of control and the T/C (dose: 400.0 mg/kg/injection, schedule: Q04DX002 (ip), vehicle: Klucel (hydroxypropylcellulose) (HPC)) was 90 % of control.
In the case of O=C(Oc1cc(Cl)ccc1Cl)c1ccccc1, the T/C [2] is reported as 122 % of control, the T/C [8] is reported as 89 % of control and the T/C [14] is reported as 89 % of control.
For COc1ccc2c(c1OC)C1(CCN(C)C)CC(=O)CCC1C=C2 (stereo unspecified), the T/C (dose: 6.25 mg/kg/injection, schedule: Q01DX009 (ip), vehicle: Klucel (hydroxypropylcellulose) (HPC)) was 90 % of control, the T/C (dose: 12.5 mg/kg/injection, schedule: Q01DX009 (ip), vehicle: Klucel (hydroxypropylcellulose) (HPC)) was 105 % of control and the T/C (dose: 12.5 mg/kg/injection, schedule: Q04DX003 (ip), vehicle: Klucel (hydroxypropylcellulose) (HPC)) was 86 % of control. The T/C (dose: 25.0 mg/kg/injection, schedule: Q01DX009 (ip), vehicle: Klucel (hydroxypropylcellulose) (HPC)) was 100 % of control, the T/C [16] was 108 % of control and the T/C (dose: 35.0 mg/kg/injection, schedule: Q01DX009 (ip), vehicle: Klucel (hydroxypropylcellulose) (HPC)) was 113 % of control. For the same molecule, the T/C [17] was 100 % of control, the T/C (dose: 55.0 mg/kg/injection, schedule: Q01DX009 (ip), vehicle: Klucel (hydroxypropylcellulose) (HPC)) was 118 % of control and the T/C (dose: 80.0 mg/kg/injection, schedule: Q01DX009 (ip), vehicle: Klucel (hydroxypropylcellulose) (HPC)) was 118 % of control. For the same molecule, the T/C [4] was 95 % of control, the T/C (dose: 120.0 mg/kg/injection, schedule: Q01DX009 (ip), vehicle: Klucel (hydroxypropylcellulose) (HPC)) was 100 % of control and the T/C (dose: 180.0 mg/kg/injection, schedule: Q01DX009 (ip), vehicle: Klucel (hydroxypropylcellulose) (HPC)) was 108 % of control.
O=C(/C=C/c1ccc(OCc2ccccc2)cc1)c1ccc(Cl)cc1Cl was tested, and the T/C [2] was 91 % of control, the T/C [8] was 89 % of control and the T/C [9] was 89 % of control.
With Nc1nc(-c2ccccc2)cc2ccccc12 the T/C [10] was 100 % of control and the T/C [11] was 97 % of control.
O=C(Nc1ccccc1)c1c(O)[nH]c(=S)[nH]c1=O was tested, and the T/C (dose: 50.0 mg/kg/injection, schedule: Q01DX005 (ip), vehicle: saline with Tween-80) was 194 % of control.
